Consider 27 molecules from patent US10000486B2 (priority 2012, dated 2018).

One test has as its system VSVg pseudotyped virus. Nature of the test: organism not typed. Type of test: cell-based. As to conditions: read-out: Activity (EC50 in μM vs. pseudotyped virus) VSVg.
The test system of a further test is Junín pseudotyped virus. Nature of the test: organism not typed. Type of test: cell-based. The conditions noted are these: read-out: Activity (EC50 in μM vs. pseudotyped virus) Junín.
Test [1] concerns Lassa GP-pseudotyped-virus. Nature of the test: microbe, parasite or virus in culture. Type of test: cell-based, Lassa fever virus. As to conditions: Human immunodeficiency virus 1, read-out: Activity (EC50 in μM vs. pseudotyped virus) Lassa.
Test [2] has as its system Machupo pseudotyped virus. Nature of the test: organism not typed. The format is cell-based. As to conditions: read-out: Activity (EC50 in μM vs. pseudotyped virus) Machupo.

Counter-ions that a name gives are not always drawn. Where only a bound is given, the exact number is not on record here.

Broadly, the EC50 is the midpoint of the concentration-response curve. Regarding `CCOc1ccc(-n2cnc3cc(/C=C/c4ccc(CC)cc4)ccc32)nc1` [Compound 18, 1-(5-ethoxy-2-pyridyl)-5-[(E)-2-(4-ethylphenyl)vinyl]benzimidazole hydrochloride], the EC50 is 10 to 50 µM in the test with VSVg pseudotyped virus, 1 to 10 µM in the test on Junín pseudotyped virus and < 1 µM in test [1].

Consider `CCc1ccc(/C=C/c2ccc3c(c2)ncn3-c2ccc(OC(C)C)cc2)cc1` [Compound 8, 5-[(E)-2-(4-ethylphenyl)vinyl]-1-(4-isopropoxyphenyl)-benzimidazole], for which the EC50 in test [2] was < 1 µM; in the test with VSVg pseudotyped virus it was 10 to 50 µM; in the test with Junín pseudotyped virus, < 1 µM; in test [1] it was < 1 µM.

With `CCOc1ccc(-n2cnc3cc(/C=C\c4ccc(OC(F)(F)F)cc4)ccc32)cc1` [Compound 11, 1-(4-ethoxyphenyl)-5-[(Z)-2-[4-(trifluoromethoxy)phenyl]vinyl]benzimidazole], the EC50 in test [2] was < 1 µM; with VSVg pseudotyped virus, 10 to 50 µM; in the test with Junín pseudotyped virus, < 1 µM; in test [1] it was < 1 µM.

Take `CC(C)Oc1ccc(-n2cnc3cc(/C=C\c4ccc(C5(O)CCOCC5)cc4)ccc32)cc1` [Compound 59, 4-[4-[(Z)-2-[1-(4-isopropoxyphenyl)benzimidazol-5-yl]vinyl]phenyl]tetrahydropyran-4-ol]: the EC50 is < 1 µM in test [2], 1 to 10 µM in the test on VSVg pseudotyped virus, < 1 µM in the test with Junín pseudotyped virus and < 1 µM in test [1].

Regarding `CCOc1ccc(-n2cnc3cc(/C=C/c4ccc(OC(F)(F)F)cc4)ccc32)cc1` [Compound 10, 1-(4-ethoxyphenyl)-5-[(E)-2-[4-(trifluoromethoxy)phenyl]vinyl]benzimidazole], the EC50 in test [2] was 1 to 10 µM; in the test on VSVg pseudotyped virus it was > 50 µM; in the test on Junín pseudotyped virus, < 1 µM; in test [1] it was < 1 µM.

For `CCOc1ccc(-n2c[n+]([O-])c3cc(NCc4ccc(CC)cc4)ccc32)cc1` [Compound 67, 1-(4-ethoxyphenyl)-N-[(4-ethylphenyl)-methyl]-3-oxido-benzimidazol-3-ium-5-amine], the EC50 was < 1 µM in test [2], 10 to 50 µM in the test with VSVg pseudotyped virus, < 1 µM in the test with Junín pseudotyped virus and < 1 µM in test [1].

`CCOc1ccc(-n2cnc3cc(CNc4ccc(CC)cc4)ccc32)cc1` [Compound 34, N-[[1-(4-ethoxyphenyl)benzimidazol-5-yl]methyl]-4-ethyl-aniline]: the EC50 in test [2] was < 1 µM; with VSVg pseudotyped virus, 10 to 50 µM; in the test with Junín pseudotyped virus, < 1 µM; in test [1] it was < 1 µM.

In the case of `CC(C)Oc1ccc(-n2cnc3cc(/C=C\c4ccc(C5(O)COC5)cc4)ccc32)cc1` [Compound 53, 3-[4-[(Z)-2-[1-(4-isopropoxyphenyl)benzimidazol-5-yl]vinyl]phenyl]oxetan-3-ol], the EC50 is < 1 µM in test [2], 1 to 10 µM in the test on VSVg pseudotyped virus, < 1 µM in the test on Junín pseudotyped virus and < 1 µM in test [1].

With `CCC(C)(O)c1ccc(/C=C\c2ccc3c(c2)ncn3-c2ccc(OC(C)C)cc2)cc1` (centres unmarked) [Compound 50, 2-[4-[(Z)-2-[1-(4-isopropoxyphenyl)benzimidazol-5-yl]vinyl]phenyl]butan-2-ol], the EC50 in test [2] was < 1 µM; with VSVg pseudotyped virus, 1 to 10 µM; in the test with Junín pseudotyped virus, < 1 µM; in test [1], < 1 µM.

Regarding `CC(C)Oc1ccc(-n2cnc3cc(/C=C\c4ccc(C(C)(C)F)cc4)ccc32)cc1` [Compound 39, 5-[(Z)-2-[4-(1-fluoro-1-methyl-ethyl)phenyl]vinyl]-1-(4-isopropoxy-phenyl)benzimidazole], the EC50 in test [2] was < 1 µM; in the test with VSVg pseudotyped virus, 1 to 10 µM; in the test on Junín pseudotyped virus, < 1 µM; in test [1], < 1 µM.

Consider `CC(C)Oc1ccc(-n2cnc3cc(/C=C\c4ccc(C5(N)CC5)cc4)ccc32)cc1` [Compound 54, 1-[4-[(Z)-2-[1-(4-isopropoxyphenyl)benzimidazol-5-yl]vinyl]phenyl]cyclopropanamine], for which the EC50 was < 1 µM in test [2], 10 to 50 µM with VSVg pseudotyped virus, < 1 µM with Junín pseudotyped virus and < 1 µM in test [1].

Take `CCOc1ccc(-n2cnc3cc(/C=C\c4ccc(CC)cc4)cnc32)cc1` [Compound 22, 3-(4-ethoxyphenyl)-6-[(Z)-2-(4-ethylphenyl)vinyl]imidazo[4,5-b]pyridine]: the EC50 in test [2] was < 1 µM; with VSVg pseudotyped virus, 10 to 50 µM; in the test with Junín pseudotyped virus, < 1 µM; in test [1], < 1 µM.

For `COC(=O)c1ccc(/C=C\c2ccc3c(c2)ncn3-c2ccc(OC(C)C)cc2)cc1` [Compound 37, methyl 4-[(Z)-2-[1-(4-isopropoxyphenyl)-benzimidazol-5-yl]vinyl]benzoate], the EC50 in test [2] was < 1 µM; in the test with VSVg pseudotyped virus it was 10 to 50 µM; in the test on Junín pseudotyped virus, < 1 µM; in test [1] it was < 1 µM.

Take `CC(C)Oc1ccc(-n2cnc3cc(C4CC4c4ccc(C(C)(C)C)cc4)ccc32)cc1` (centres unmarked) [Compound 36, 5-[2-(4-tert-butylphenyl)cyclopropyl]-1-(4-isopropoxyphenyl)-benzimidazole]: the EC50 in test [2] is < 1 µM; in the test on VSVg pseudotyped virus it was 10 to 50 µM; with Junín pseudotyped virus, < 1 µM; in test [1] it was < 1 µM.

For `CCOc1ccc(-n2cnc3cc(C#Cc4ccc(CC)cc4)cnc32)cc1` [Compound 26, 3-(4-ethoxyphenyl)-6-[2-(4-ethylphenyl)-ethynyl]imidazo[4,5-b]pyridine], the EC50 in test [2] fell in the range of 10 to 50 µM; in the test on VSVg pseudotyped virus, 10 to 50 µM; in the test with Junín pseudotyped virus, 1 to 10 µM; in test [1] it was 1 to 10 µM.

For the molecule `CCOc1ccc(-n2cnc3cc(/C=C\c4ccc(C(F)(F)F)cc4)ccc32)cc1` [Compound 13], the EC50 is < 1 µM in test [2], 10 to 50 µM in the test on VSVg pseudotyped virus, < 1 µM with Junín pseudotyped virus and < 1 µM in test [1].

Regarding `C=C(C)c1ccc(/C=C\c2ccc3c(c2)ncn3-c2ccc(OC(C)C)cc2)cc1` [Compound 40, 5-[(Z)-2-(4-isopropenylphenyl)-vinyl]-1-(4-isopropoxyphenyl)-benzimidazole], the EC50 in test [2] is < 1 µM; in the test on VSVg pseudotyped virus, 10 to 50 µM; in the test with Junín pseudotyped virus it was < 1 µM; in test [1] it was < 1 µM.

For the molecule `CC(C)Oc1ccc(-n2cnc3cc(/C=C\c4ccc(C5(O)CC5)cc4)ccc32)cc1` [Compound 48, 1-[4-[(Z)-2-[1-(4-isopropoxyphenyl)benzimidazol-5-yl]vinyl]phenyl]cyclopropanol], the EC50 in test [2] was < 1 µM; in the test on VSVg pseudotyped virus, 10 to 50 µM; with Junín pseudotyped virus, < 1 µM; in test [1] it was < 1 µM.

As for `CC(C)Oc1ccc(-n2cnc3cc(/C=C\c4ccc(C5(O)CNC5)cc4)ccc32)cc1` [Compound 58, 3-[4-[(Z)-2-[1-(4-isopropoxyphenyl)benzimidazol-5-yl]vinyl]phenyl]azetidin-3-ol], the EC50 in test [2] was < 1 µM; in the test on VSVg pseudotyped virus it was 10 to 50 µM; in the test on Junín pseudotyped virus, < 1 µM; in test [1], 1 to 10 µM.

For `CCOc1ccc(-n2cnc3cc(CCc4ccc(CC)cc4)cnc32)cc1` [Compound 28, 3-(4-ethoxyphenyl)-6-[2-(4-ethylphenyl)-ethyl]imidazo[4,5-b]pyridine], the EC50 in test [2] is < 1 µM; in the test with VSVg pseudotyped virus, > 50 µM; in the test with Junín pseudotyped virus, < 1 µM; in test [1], < 1 µM.

Turning to `CC(C)Oc1ccc(-n2cnc3cc(/C=C\c4ccc(C(C)O)cc4)ccc32)cc1` (centres unmarked) [Compound 51, 1-[4-[(Z)-2-[1-(4-isopropoxyphenyl)benzimidazol-5-yl]vinyl]phenyl]ethanol], the EC50 in test [2] is < 1 µM; in the test on VSVg pseudotyped virus, 1 to 10 µM; with Junín pseudotyped virus, < 1 µM; in test [1] it was < 1 µM.

In the case of `CCOc1ccc(-c2cnc3cc(NCc4ccc(CC)cc4)ccn23)cc1` [Compound 65, 3-(4-ethoxyphenyl)-N-[(4-ethylphenyl)-methyl]imidazo[1,2-a]pyridin-7-amine], the EC50 in test [2] is < 1 µM; with VSVg pseudotyped virus, 1 to 10 µM; with Junín pseudotyped virus, < 1 µM; in test [1], < 1 µM.

Consider `CCOc1ccc(-n2cnc3cc(OCc4ccc(CC)cc4)ccc32)cc1` [Compound 29, 1-(4-ethoxyphenyl)-5-[(4-ethylphenyl)-methoxy]benzimidazole], for which the EC50 in test [2] is < 1 µM; in the test on VSVg pseudotyped virus, 10 to 50 µM; with Junín pseudotyped virus it was < 1 µM; in test [1], < 1 µM.

In the case of `CCOc1ccc(-c2c[nH]c3cc(NCc4ccc(CC)cc4)ccc23)cc1` [Compound 64, 3-(4-ethoxyphenyl)-N-[(4-ethylphenyl)-methyl]-1H-indol-6-amine], the EC50 was < 1 µM in test [2], 10 to 50 µM with VSVg pseudotyped virus, < 1 µM in the test on Junín pseudotyped virus and < 1 µM in test [1].

Take `CC(C)Oc1ccc(-n2cnc3cc(/C=C\c4ccc(C5(O)CCC5)cc4)ccc32)cc1` [Compound 52, 1-[4-[(Z)-2-[1-(4-isopropoxyphenyl)benzimidazol-5-yl]vinyl]phenyl]cyclobutanol]: the concentration giving a half-maximal response (EC50) in test [2] was < 1 µM; in the test with VSVg pseudotyped virus it was 1 to 10 µM; in the test on Junín pseudotyped virus, < 1 µM; in test [1], < 1 µM.

Take `CC(C)Oc1ccc(-n2cnc3cc(/C=C\c4ccc(C(C)(C)O)cc4)ccc32)cc1` [Compound 38, 2-[4-[(Z)-2-[1-(4-isopropoxyphenyl)benzimidazol-5-yl]vinyl]phenyl]-propan-2-ol]: the EC50 in test [2] is < 1 µM; in the test with VSVg pseudotyped virus it was 1 to 10 µM; in the test with Junín pseudotyped virus it was < 1 µM; in test [1] it was < 1 µM.

Take `CC(C)Oc1ccc(-n2cnc3cc(/C=C\c4ccc(C(C)(C)N)cc4)ccc32)cc1` [Compound 60, 2-[4-[(Z)-2-[1-(4-isopropoxyphenyl)benzimidazol-5-yl]vinyl]phenyl]propan-2-amine]: the EC50 is < 1 µM in test [2], > 50 µM with VSVg pseudotyped virus, < 1 µM in the test with Junín pseudotyped virus and < 1 µM in test [1].
